From publication PMC8319832, “Fine-Tuning of Alkaline Residues on the Hydrophilic Face Provides a Non-toxic Cationic α-Helical Antimicrobial Peptide Against Antibiotic-Resistant ESKAPE Pathogens” (Frontiers in Microbiology, 2021)
≈ marks a conversion by molar mass, not a printed value.

How the values were obtained:
S. aureus 1176 [1] = assay: Drug sensitivity, Kirby-Bauer test; format: cell-based, Staphylococcus aureus; design: key: 'S' represents susceptibility; 'I' represents intermediate efficacy; 'R' represents resistance; settings: clinical isolate
Experimental: (§1) The bacteria used in this study included the standard strains S. aureus ATCC29213 and ATCC25923, E. faecalis ATCC29212, E. coli ATCC25922 and ATCC35218, A. baumannii ATCC19606, K. pneumoniae ATCC700603 and P. aeruginosa ATCC27853, these strains were purchased from the China Center of Type Culture Collection (CCTCC). The antimicrobial activities of the peptides were also determined against clinically isolated strains S. aureus 4188, 9124, 1176, S. epidermidis 9092, 6943, 888, E. faecalis 901, E. faecium 898, E. coli 2678, 2687, K. pneumoniae 9126, P. aeruginosa 9014, 9042, and A. baumannii 906, 13012, 13079, 9068, these strains were acquired from Taihe Hospital, Hubei University of Medicine. The drug sensitivities of the clinical isolates to the antibiotics were determined by the Kirby-Bauer test ([Chinnambedu et al., 2020]).

S. aureus 4188 [2] = assay: Drug sensitivity, Kirby-Bauer test; format: cell-based, Staphylococcus aureus; design: key: 'S' represents susceptibility; 'I' represents intermediate efficacy; 'R' represents resistance; settings: clinical isolate
Experimental: as §1

S. aureus 9124 [3] = assay: Drug sensitivity, Kirby-Bauer test; format: cell-based, Staphylococcus aureus; design: key: 'S' represents susceptibility; 'I' represents intermediate efficacy; 'R' represents resistance; settings: clinical isolate, MRSA
Experimental: as §1

E. faecalis 901 [4] = assay: Drug sensitivity, Kirby-Bauer test; format: cell-based; design: key: 'S' represents susceptibility; 'I' represents intermediate efficacy; 'R' represents resistance; settings: clinical isolate
Experimental: as §1

S. epidermidis 6943 [5] = assay: Drug sensitivity, Kirby-Bauer test; format: cell-based; design: key: 'S' represents susceptibility; 'I' represents intermediate efficacy; 'R' represents resistance; settings: clinical isolate, MRSE
Experimental: as §1

S. epidermidis 888 [6] = assay: Drug sensitivity, Kirby-Bauer test; format: cell-based; design: key: 'S' represents susceptibility; 'I' represents intermediate efficacy; 'R' represents resistance; settings: clinical isolate
Experimental: as §1

S. epidermidis 9092 [7] = assay: Drug sensitivity, Kirby-Bauer test; format: cell-based; design: key: 'S' represents susceptibility; 'I' represents intermediate efficacy; 'R' represents resistance; settings: clinical isolate, MRSE
Experimental: as §1

E. faecium 898 [8] = assay: Drug sensitivity, Kirby-Bauer test; format: cell-based, Enterococcus faecium; design: key: 'S' represents susceptibility; 'I' represents intermediate efficacy; 'R' represents resistance; settings: clinical isolate
Experimental: as §1

S. aureus 1176 [9] = assay: MIC, broth dilution; format: cell-based, Staphylococcus aureus; settings: CLSI broth dilution, MHB, 37°C, 20 h, OD630, at least three repeats; clinical isolate
Description: (§2) All experiments were repeated at least three times.

S. aureus 4188 [10] = assay: MIC, broth dilution; format: cell-based, Staphylococcus aureus; settings: CLSI broth dilution, MHB, 37°C, 20 h, OD630, at least three repeats; clinical isolate, penicillin-resistant
Description: as §2

S. aureus 9124 [11] = assay: MIC, broth dilution; format: cell-based, Staphylococcus aureus; settings: CLSI broth dilution, MHB, 37°C, 20 h, OD630, at least three repeats; clinical isolate, MRSA
Description: as §2

E. faecalis 901 [12] = assay: MIC, broth dilution; format: cell-based; settings: CLSI broth dilution, MHB, 37°C, 20 h, OD630, at least three repeats; clinical isolate
Description: as §2

S. epidermidis 6943 [13] = assay: MIC, broth dilution; format: cell-based; settings: CLSI broth dilution, MHB, 37°C, 20 h, OD630, at least three repeats; clinical isolate, MRSE
Description: as §2

S. epidermidis 888 [14] = assay: MIC, broth dilution; format: cell-based; settings: CLSI broth dilution, MHB, 37°C, 20 h, OD630, at least three repeats; clinical isolate
Description: as §2

S. epidermidis 9092 [15] = assay: MIC, broth dilution; format: cell-based; settings: CLSI broth dilution, MHB, 37°C, 20 h, OD630, at least three repeats; clinical isolate, MRSE
Description: as §2

E. faecium 898 [16] = assay: MIC, broth dilution; format: cell-based, Enterococcus faecium; settings: CLSI broth dilution, MHB, 37°C, 20 h, OD630, at least three repeats; clinical isolate
Description: as §2

E. coli 2678 = assay: MIC, broth dilution; format: cell-based, Escherichia coli; settings: CLSI broth dilution, MHB, 37°C, 20 h, OD630, at least three repeats; clinical isolate, ESBL
Description: as §2

E. coli 2687 = assay: MIC, broth dilution; format: cell-based, Escherichia coli; settings: CLSI broth dilution, MHB, 37°C, 20 h, OD630, at least three repeats; clinical isolate, ESBL
Description: as §2

E. coli ATCC35218 = assay: MIC, broth dilution; format: cell-based, Escherichia coli; settings: CLSI broth dilution, MHB, 37°C, 20 h, OD630, at least three repeats; standard strain
Description: as §2

P. aeruginosa 9014 = assay: MIC, broth dilution; format: cell-based, Pseudomonas aeruginosa; settings: CLSI broth dilution, MHB, 37°C, 20 h, OD630, at least three repeats; clinical isolate, CRE, MDR
Description: as §2

P. aeruginosa 9042 = assay: MIC, broth dilution; format: cell-based, Pseudomonas aeruginosa; settings: CLSI broth dilution, MHB, 37°C, 20 h, OD630, at least three repeats; clinical isolate
Description: as §2

A. baumannii ATCC 19606 = assay: MIC, broth dilution; format: cell-based, Acinetobacter baumannii; settings: CLSI broth dilution, MHB, 37°C, 20 h, OD630, at least three repeats; standard strain
Experimental: as §2
(§3) To study the influence of physiological ions on the antimicrobial activities of the peptides, The MICs of the peptides were also determined against the standard bacterial strains cultured in MHB containing various salts at their physiological concentrations (150 mM NaCl, 4.5 mM KCl, 1 mM MgCl2, 2 mM CaCl2, 6 μM NH4HCO3, and 4 μM FeCl3) ([Ma et al., 2016]).

A. baumannii 13012 = assay: MIC, broth dilution; format: cell-based, Acinetobacter baumannii; settings: CLSI broth dilution, MHB, 37°C, 20 h, OD630, at least three repeats; clinical isolate, CRE, MDR
Description: as §2

A. baumannii 13079 = assay: MIC, broth dilution; format: cell-based, Acinetobacter baumannii; settings: CLSI broth dilution, MHB, 37°C, 20 h, OD630, at least three repeats; clinical isolate, CRE, MDR
Description: as §2

A. baumannii 9068 = assay: MIC, broth dilution; format: cell-based, Acinetobacter baumannii; settings: CLSI broth dilution, MHB, 37°C, 20 h, OD630, at least three repeats; clinical isolate, CRE, MDR
Description: as §2

A. baumannii 906 = assay: MIC, broth dilution; format: cell-based, Acinetobacter baumannii; settings: CLSI broth dilution, MHB, 37°C, 20 h, OD630, at least three repeats; clinical isolate, CRE, MDR
Description: as §2

[17] = system: K. pneumoniae ATCC 700603; assay: MIC, broth dilution; format: cell-based, Klebsiella pneumoniae; settings: CLSI broth dilution, MHB, 37°C, 20 h, OD630, at least three repeats; standard strain
Experimental: as §2, §3

K. pneumoniae 9126 = assay: MIC, broth dilution; format: cell-based, Klebsiella pneumoniae; settings: CLSI broth dilution, MHB, 37°C, 20 h, OD630, at least three repeats; clinical isolate, CRE
Description: as §2

| Compound | Drug sensitivity of the isolate to the antibiotic (S. aureus 1176 [1]) | Drug sensitivity of the isolate to the antibiotic (S. aureus 4188 [2]) | Drug sensitivity of the isolate to the antibiotic (S. aureus 9124 [3]) | Drug sensitivity of the isolate to the antibiotic (E. faecalis 901 [4]) | Drug sensitivity of the isolate to the antibiotic (S. epidermidis 6943 [5]) | Drug sensitivity of the isolate to the antibiotic (S. epidermidis 888 [6]) | Drug sensitivity of the isolate to the antibiotic (S. epidermidis 9092 [7]) | Drug sensitivity of the isolate to the antibiotic (E. faecium 898 [8]) | other results |
| --- | --- | --- | --- | --- | --- | --- | --- | --- | --- |
| CO[C@H]1/C=C/O[C@@]2(C)Oc3c(C)c(O)c4c(O)c(c(/C=N/N5CCN(C)CC5)c(O)c4c3C2=O)NC(=O)/C(C)=C\C=C\[C@H](C)[C@H](O)[C@@H](C)[C@@H](O)[C@@H](C)[C@H](OC(C)=O)[C@@H]1C [Rifampin] | S | S | S | R | S | S | S | R |  |
| CC[C@H](C)[C@H](NC(=O)CN)C(=O)NCC(=O)N[C@@H](C)C(=O)N[C@H](C(=O)N[C@@H](CC(C)C)C(=O)N[C@@H](CCCCN)C(=O)N[C@H](C(=O)N[C@@H](CC(C)C)C(=O)N[C@H](C(=O)N[C@H](C(=O)NCC(=O)N[C@@H](CC(C)C)C(=O)N1CCC[C@H]1C(=O)N[C@@H](C)C(=O)N[C@@H](CC(C)C)C(=O)N[C@H](C(=O)N[C@@H](CO)C(=O)N[C@@H](Cc1c[nH]c2ccccc12)C(=O)N[C@H](C(=O)N[C@@H](CCCCN)C(=O)N[C@@H](CCCNC(=N)N)C(=O)N[C@@H](CCCCN)C(=O)N[C@@H](CCCNC(=N)N)C(=O)N[C@@H](CCC(N)=O)C(=O)N[C@@H](CCC(N)=O)C(N)=O)[C@@H](C)CC)[C@@H](C)CC)[C@@H](C)O)[C@@H](C)O)C(C)C)C(C)C [Melittin] |  |  |  |  |  |  |  |  | MIC (S. aureus 1176 [9]): 5 µg/mL (≈ 1.76 µM); MIC (S. aureus 4188 [10]): 2.5 µg/mL (≈ 0.878 µM); MIC (S. aureus 9124 [11]): 2.5 µg/mL (≈ 0.878 µM); MIC (E. faecalis 901 [12]): 2.5 µg/mL (≈ 0.878 µM); MIC (S. epidermidis 6943 [13]): 2.5 µg/mL (≈ 0.878 µM); MIC (S. epidermidis 888 [14]): 2.5 µg/mL (≈ 0.878 µM); MIC (S. epidermidis 9092 [15]): 2.5 µg/mL (≈ 0.878 µM); MIC (E. faecium 898 [16]): 5 µg/mL (≈ 1.76 µM); MIC (E. coli 2678): 5 µg/mL (≈ 1.76 µM); MIC (E. coli 2687): 2.5 µg/mL (≈ 0.878 µM); MIC (E. coli ATCC35218): 5 µg/mL (≈ 1.76 µM); MIC (P. aeruginosa 9014): 5 µg/mL (≈ 1.76 µM); MIC (P. aeruginosa 9042): 5 µg/mL (≈ 1.76 µM); MIC (A. baumannii ATCC 19606): 2.5 µg/mL (≈ 0.878 µM); MIC (A. baumannii 13012): 2.5 µg/mL (≈ 0.878 µM); MIC (A. baumannii 13079): 2.5 µg/mL (≈ 0.878 µM); MIC (A. baumannii 9068): 2.5 µg/mL (≈ 0.878 µM); MIC (A. baumannii 906): 2.5 µg/mL (≈ 0.878 µM); MIC [17]: 5 µg/mL (≈ 1.76 µM); MIC (K. pneumoniae 9126): 5 µg/mL (≈ 1.76 µM) |
| CNC(C)C1CCC(N)C(OC2C(N)CC(N)C(OC3OCC(C)(O)C(NC)C3O)C2O)O1 (stereo not shown) [Gentamicin] | S | S | S | R | S | R | R | R |  |
| Penicillin | R | R | R | S | R | S | R | R |  |
| CC[C@H]1OC(=O)[C@H](C)[C@@H](O[C@H]2C[C@@](C)(OC)[C@@H](O)[C@H](C)O2)[C@H](C)[C@@H](O[C@@H]2O[C@H](C)C[C@H](N(C)C)[C@H]2O)[C@](C)(O)C[C@@H](C)C(=O)[C@H](C)[C@@H](O)[C@]1(C)O [Erythromycin] | R | S | R | R | R | R | R | R |  |
